Source: US6353024B1, “Method for preventing and treating arthritis, osteo-traumatic pain, and neuralgias with trimebutine” (Warner-Lambert Company, priority 2000, dated 2002)

How the values were obtained:
formalin induced pain = test: formalin-induced pain; conditions: s.c., 30 min before formalin injection in the paw
[1] = system: unilateral peripheral mononeuropathy; test: rat mononeuropathy, vocalization threshold to paw pressure
[2] = system: streptozocin-induced hyperalgesia; test: streptozocin-induced diabetic rats, tail immersion test; type: in vivo, rat; conditions: single dose 30 mg/kg s.c., 30 min or 60 min before tail immersion test, water 44° C.
Method: FIG. 9: Effect of TMB in diabetic rats.
Test is carried out with male Sprague Dawley rats (Iffa-Credo) weighing 160-180 grams on arrival. […] Food and water are provided ad libidum.
Animals are intraperitoneally injected with streptozocin 75 mg/kg. Control animals are given vehicle in the same conditions. Diabetes are confirmed once a week after injection by measurement of tail vein blood glucose levels with Boehriger glycemnia test. Only animals with a final glucose level[…] are included in the study.
The tail of the rat is immersed in a water bath at 44° C. Nociceptive reaction is defined as the reaction time (seconds) before the tail withdrawal. Results are expressed as the mean+/−SEM and analysed by a Student's t test after an analysis of variance (Anova one way)

[3] = system: sodium current of DRG neurons; test: whole cell patch clamp, sodium currents in DRG neurons; type: cell-based, rat
[4] = volunteers, tablets of 900 mg of trimebutine, oral

Q: With `CCC(COC(=O)c1cc(OC)c(OC)c(OC)c1)(NC)c1ccccc1` (stereo not drawn) [Nor-TMB, N-desmethyl trimebutine] as the compound, how does the “ED50, formalin induced pain” value (formalin induced pain) read?
A: 17 mg/kg

Q: Which “antinociceptive effect in terms of amplitude and duration of action” value ([1]; 3 and 10 mg/kg s.c.) does the source give for `CC[C@](COC(=O)c1cc(OC)c(OC)c(OC)c1)(NC)c1ccccc1` [(S)-Nor-TMB, (S)-N-desmethyl trimebutine] here?
A: superior to that of morphine at 1 mg/kg i.v.

Q: And the “antinociceptive effect in the contralateral paw” value ([1]; s.c.)?
A: only at the highest dose (10 mg/kg)

Q: And the “dose from which increase of the vocalization pressure threshold is present” value ([1]; s.c.)?
A: ≥ 1 mg/kg

Q: What about the “antinociceptive effect in the nerve-injured paw” value ([1]; s.c., three doses) of the same compound?
A: significant at all the three doses tested

Q: What about the “reaction time of tail withdrawal” value [2] of the same compound?
A: the same as in control (non diabetic) rats

Q: What does the source list for `CCC(COC(=O)c1cc(OC)c(OC)c(OC)c1)(c1ccccc1)N(C)C.O=C(O)/C=C\C(=O)O` (racemic) [trimebutine, 2-dimethylamino-2-phenylbutyl 3,4,5-trimethoxybenzoate hydrogen maleate]?
A: unblocking rate koff [3]: 29 10^−3 s^−1; time constant τoff of recovery from block ([3]; n=6): 34 ± 4 s; time of maximal plasma concentrations [4]: 1 h
